# System: INS-1E cells
# Assay: Luciferase Insulin Secretion Assay (proinsulin-Gaussia luciferase reporter)
# Assay type: cell-based, rat
# Design: key to Activity: Active: a compound is identified as active if the compound has a Z-score greater than 3 in the presence of 16.7 mM glucose; Partial activity indicates that the compound does promote insulin secretion (at lower Z-scores); Lost Glucose Dependence: In some cases, insulin secretion was promoted at both measured insulin concentrations
# Details: INS-1E cells; 2.8 mM vs 16.7 mM glucose
# Text: A high-throughput luminescent insulin secretion assay was developed and performed to identify compounds that amplified insulin secretion only in the presence of a permissive glucose environment (FIG. 3). The assay used in compound screening is described in International Patent Publication No. WO2013070796A3, PCT/US2012/063982, and in Burns et al., High-Throughput Luminescent Reporter of Insulin Secretion for Discovering Regulators of Pancreatic Beta-Cell Function. Cell Metab. 2015 Jan. 6; 21(1):126-37.
# The assay is a luminescent insulin secretion assay created by inserting Gaussia luciferase within the C-peptide portion of the insulin prohormone. Gaussia luciferase was chosen because of its small size and bright luciferase signal. To ensure full activity of the luciferase, a version was used that was codon-optimized for expression in mammalian cells. The enzyme was flanked with additional cleavage sites for prohormone convertase 2 (PC2), such that no extra amino acids should be present on the ends of the enzyme after processing within the vesicles (FIG. 4). Rat (INS-1E; Merglen et al., 2004) beta-cell lines stably expressing the reporter construct were generated. Assays using this cell type are referred to herein as Luciferase Insulin Secretion Assay.
# A search for glucose-dependent insulin secretagogues was conducting by screening 384,216 compounds at a single concentration (10 μM) in duplicate using the Luciferase Insulin Secretion Assay, to identify those that increase insulin secretion only in the presence of high glucose (11.1 mM) (FIG. 6). These assays were performed in 1536 well format. A Z′ factor of 0.35 was obtained with respect the positive control (300 μM IBMX). The cutoff value selected was 45% activation, which was 3-4 standard deviations above background (solid uppermost line; FIG. 6).
# For standard secretion assays, INS-1E cells were plated in 96-well format, preincubated for 1 hr in Krebs Ringer Buffer (KRB) with 2.8 mM glucose, and then stimulated for 1 hr in fresh KRB containing varying amounts of glucose and compounds. Insulin or C-peptide concentration was determined using an ELISA (Mercodia), following the manufacturer's protocol. Luciferase activity was determined from the same samples by adding the coelenterazine substrate to the supernatant to a final concentration of 10 μM and reading on a standard plate reader (BioTek).
# INS-1E cells were expanded to 80% confluence in their growth medium, washed once in PBS, and preincubated for 1 hr at 37° C. in KRB with 2.8 mM glucose. Cells were then dissociated, spun at 300×g for 2 min, resuspended in fresh KRB without glucose, and filtered through 40 μm mesh (Becton Dickinson). Next, the cells were counted and diluted in KRB to 1×10^6 cells per ml, and glucose was added as required for each experiment. Cells were then seeded in 384-well format, 3×10^4 cells in 30 μl per well, using a Multidrop Combi device (Thermo Scientific). Compounds were pinned into each well using a Vario robot (CyBio) to a final concentration of 30 μM, and the plates were then incubated for 2 hr at 37° C. For assays involving a transfer step, the plates were then centrifuged at 300×g for 2 min, and 20 μl of supernatant was transferred to a new 384-well plate. Coelenterazine substrate was then added to a final concentration of 10 μM, and luciferase activity was determined using a standard plate reader (BioTek).
row,Compound,"glucose-dependent (glucose-stimulated) insulin secretion, luciferase reporter"
1,"COc1ccc(CCc2nc3cc(-c4c(C)noc4C)ccc3n2C[C@H](C)N2CCOCC2)cc1Cl [CBP30, reference compound]",neither of the known bromodomain inhibitors (PF1 or CBP30) affect secretion to the extent of Compound 8
2,Cc1cccc(C)c1NC(=O)c1ccc(OCc2c(C)noc2C)cc1 [Compound 16],some positive effect on secretion
3,Cc1ccccc1NC(=O)c1ccc(OCc2c(C)noc2C)cc1 [Compound 17],some positive effect on secretion

# Same assay, conditions: glucose dependence of insulin secretion; Z-score in the presence of 16.7 mM glucose
row,Compound,Activity
1,Cc1cccc(-c2cnc(-c3ccc(NCc4c(C)noc4C)cc3)[nH]2)c1C [Compound 27],Inactive
2,Cc1cccc(-c2cc(-c3ccc(NCc4c(C)noc4C)cc3)[nH]n2)c1C [Compound 28],Inactive
3,Cc1cccc(-c2ncc(-c3ccc(NCc4c(C)noc4C)cc3)[nH]2)c1C [Compound 29],Inactive
4,Cc1cccc(-c2nc(C)c(-c3ccc(NCc4c(C)noc4C)cc3)[nH]2)c1C [Compound 30],Inactive
5,Cc1cc(NCc2c(C)noc2C)ccc1-c1cnc(-c2cccc(C)c2C)[nH]1 [Compound 31],Inactive
6,Cc1cccc(NS(=O)(=O)c2ccc(NCc3c(C)noc3C)cc2)c1C [Compound 32],Inactive
7,Cc1cccc(NC(c2ccc(NCc3c(C)noc3C)cc2)C(F)(F)F)c1C (stereo not drawn) [Compound 33],Inactive
8,Cc1cccc(-c2nc3cc(NCc4c(C)noc4C)ccc3[nH]2)c1C [Compound 34],Inactive
9,Cc1cccc(-c2noc(-c3ccc(NCc4c(C)noc4C)cc3)n2)c1C [Compound 35],Inactive
10,Cc1ccc2nc(-c3ccc(NCc4c(C)noc4C)cc3)[nH]c2c1C [Compound 36],Inactive
11,Cc1cccc(NC(=O)c2ccc(OCc3c(C)noc3C)cn2)c1C [Compound 45],Inactive
12,Cc1cccc(NC(=O)c2ccc(OCc3c(C)noc3C)cc2O)c1C [Compound 46],Inactive
13,"Cc1cccc(NC(=O)c2ccc(OCc3cnoc3)cc2)c1C [Compound 47, N-(2,3-Dimethyl-phenyl)-4-(isoxazol-4-ylmethoxy)-benzamide]",Inactive
14,Cc1cccc(NC(=O)c2ccc(OCc3c(C)cnn3C)cc2)c1C [Compound 48],Inactive
15,"Cc1cccc(NC(=O)c2ccc(OCc3c(C)ccnc3C)cc2)c1C [Compound 50, N-(2,3-Dimethyl-phenyl)-4-(2,4-dimethyl-pyridin-3-ylmethoxy)-benzamide]",Inactive
16,CC1=CC(=O)Cc2cc(COc3ccc(C(=O)Nc4cccc(C)c4C)cc3)ccc21 [Compound 51],"Partial activity, Lost Glucose Dependence"
17,Cc1cccc(NC(=O)c2ccc(OC(C)c3c(C)noc3C)cc2)c1C (stereo not drawn) [Compound 52],Inactive
18,Cc1cccc(NC(=O)c2ccc(OCc3cn(C)nc3C)cc2)c1C [Compound 53],Inactive
19,Cc1cccc(NC(=O)c2ccc(OCc3c(C)nn(C)c3C)cc2)c1C [Compound 54],Inactive
20,Cc1cccc(NC(=O)c2ccc(/C=C\c3c(C)noc3C)cc2)c1C [Compound 55 (cis)],Inactive
21,Cc1cccc(NC(=O)c2ccc(/C=C/c3c(C)noc3C)cc2)c1C [Compound 55],"Partial activity, Lost Glucose Dependence"
22,Cc1cccc(NC(=O)c2ccc(N(C)Cc3c(C)noc3C)cc2)c1C [Compound 56],Inactive
23,"Cc1cccc(NC(=O)c2ccc(CNc3c(C)noc3C)cc2)c1C [Compound 57, 4-[(3,5-Dimethyl-isoxazol-4-ylamino)-methyl]-N-(2,3-dimethyl-phenyl)-benzamide]",Inactive

row,Compound,Activity
1,"Cc1cccc(NC(=O)c2ccc(CN(C)c3c(C)noc3C)cc2)c1C [Compound 58, 4-{[(3,5-Dimethyl-isoxazol-4-yl)-methyl-amino]-methyl}-N-(2,3-dimethyl-phenyl)-benzamide]",Inactive
2,"Cc1cccc(NC(=O)c2ccc(OCc3ccnnc3)cc2)c1C [Compound 59, N-(2,3-Dimethyl-phenyl)-4-(pyridazin-4-ylmethoxy)-benzamide]",Inactive
3,"Cc1cccc(NC(=O)c2ccc(OCc3ccncc3)cc2)c1C [Compound 60, N-(2,3-Dimethyl-phenyl)-4-(pyridin-4-ylmethoxy)-benzamide]",Inactive
4,"Cc1cccc(NC(=O)c2ccc(OCc3cccnc3)cc2)c1C [Compound 61, N-(2,3-Dimethyl-phenyl)-4-(pyridin-3-ylmethoxy)-benzamide]",Inactive
5,Cc1cccc(NC(=O)c2ccc(OCc3ccccn3)cc2)c1C [Compound 62],Inactive
6,"Cc1cccc(NC(=O)c2ccc(OCc3cccnc3C)cc2)c1C [Compound 63, N-(2,3-Dimethyl-phenyl)-4-(2-methyl-pyridin-3-ylmethoxy)-benzamide]",Inactive
7,"Cc1ccncc1COc1ccc(C(=O)Nc2cccc(C)c2C)cc1 [Compound 64, N-(2,3-Dimethyl-phenyl)-4-(4-methyl-pyridin-3-ylmethoxy)-benzamide]",Inactive
8,"COc1ncccc1COc1ccc(C(=O)Nc2cccc(C)c2C)cc1 [Compound 65, N-(2,3-Dimethyl-phenyl)-4-(2-methoxy-pyridin-3-ylmethoxy)-benzamide]",Inactive
9,"Cc1cccc(NC(=O)c2ccc(OCc3cnccc3Cl)cc2)c1C [Compound 66, 4-(4-Chloro-pyridin-3-ylmethoxy)-N-(2,3-dimethyl-phenyl)-benzamide]",Inactive
10,"Cc1cccc(NC(=O)c2ccc(OCc3cccnc3Cl)cc2)c1C [Compound 67, 4-(2-Chloro-pyridin-3-ylmethoxy)-N-(2,3-dimethyl-phenyl)-benzamide]",Inactive
11,"Cc1noc(C)c1COc1ccc(C(=O)Nc2cccc(Cl)c2Cl)cc1 [Compound 68, N-(2,3-Dichloro-phenyl)-4-(3,5-dimethyl-isoxazol-4-ylmethoxy)-benzamide]",Active
12,"Cc1cccc(NC(=O)c2ccc(OCc3c(C)noc3C)cc2)c1C#N [Compound 69, N-(2-Cyano-3-methyl-phenyl)-4-(3,5-dimethyl-isoxazol-4-ylmethoxy)-benzamide]",Active
13,Cc1cccc(NC(=O)c2ccc(OCc3c(C)noc3C)cc2)c1CO [Compound 70],Active
14,"Cc1noc(C)c1COc1ccc(C(=O)Nc2cccc(Cl)c2C)cc1 [Compound 72, N-(3-Chloro-2-methyl-phenyl)-4-(3,5-dimethyl-isoxazol-4-ylmethoxy)-benzamide]",Active
15,"Cc1noc(C)c1COc1ccc(C(=O)Nc2cccc3c2CCCC3)cc1 [Compound 73, 4-(3,5-Dimethyl-isoxazol-4-ylmethoxy)-N-(5,6,7,8-tetrahydro-naphthalen-1-yl)benzamide]",Inactive
16,"Cc1noc(C)c1COc1ccc(C(=O)Nc2cccc3ccccc23)cc1 [Compound 74, 4-(3,5-Dimethyl-isoxazol-4-ylmethoxy)-N-naphthalen-1-yl-benzamide]",Inactive
17,Cc1cccc(NC(=O)c2ccc(OCc3c(C)noc3C)cc2)c1 [Compound 75],Inactive
18,Cc1ccccc1NC(=O)c1ccc(OCc2c(C)noc2C)cc1 [Compound 76],Inactive
19,Cc1cccc(C)c1NC(=O)c1ccc(OCc2c(C)noc2C)cc1 [Compound 77],Inactive
20,"Cc1cccc(NC(=O)c2ccc(OCc3c(C)noc3C)cc2)c1Cl [Compound 78, N-(2-Chloro-3-methyl-phenyl)-4-(3,5-dimethyl-isoxazol-4-ylmethoxy)-benzamide]",Inactive
21,Cc1noc(C)c1COc1ccc(C(=O)N2CCc3ccccc32)cc1 [Compound 79],Inactive
22,Cc1noc(C)c1COc1ccc(C(=O)N2CCCc3ccccc32)cc1 [Compound 80],Inactive
